According to publication PMC10682951, “Structure-function and rational design of a spider toxin Ssp1a at human voltage-gated sodium channel subtypes” (Frontiers in Pharmacology, 2023):

Columns and labels:
Type in all cases: cell-based
hNaV1.2 = target: T1, hNaV1.2 (Homo sapiens, UniProt Q99250); assay: Automated whole-cell patch-clamp (QPatch 16X), hNaV1.2; conditions: for IC50: HEK293 cells expressing hNaV1.2 + β1 subunit, QPatch 16X, holding −80 mV, step to 0 mV, peptide incubated 2 min, 0.1% BSA, mean, SEM and n (2-7)
T1 construct: host or cells: HEK293
How it was run: (§1)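 HEK293 cells stably expressing the channel (human subtypes with β1 subunit), held at −80 mV; 2 min peptide pre-incubation, then 20 ms steps to 0 mV after a 200 ms −120 mV conditioning pulse. Extracellular pH 7.3 with 20 mM TEA-Cl, CsF-based pipette solution, 0.1% BSA; IC50 from four-parameter Hill fit.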

hNaV1.7 = target: T2, hNaV1.7 (Homo sapiens, UniProt Q15858); assay: Automated whole-cell patch-clamp (QPatch 16X), hNaV1.7; conditions: HEK293 cells expressing hNaV1.7 + β1 subunit; QPatch 16X; holding −80 mV, step to 0 mV; peptide incubated 2 min; 0.1% BSA; mean, SEM and n (3-9)
T2 construct: host or cells: HEK293
How it was run: as §1

hNaV1.3 = target: T3, hNaV1.3 (Homo sapiens, UniProt Q9NY46); assay: Automated whole-cell patch-clamp (QPatch 16X), hNaV1.3; conditions: HEK293 cells expressing hNaV1.3 + β1 subunit; QPatch 16X; holding −80 mV, step to 0 mV; peptide incubated 2 min; 0.1% BSA; mean, SEM and n (3-12)
T3 construct: host or cells: HEK293
How it was run: as §1

T3 sequence (Q9NY46 whole entry): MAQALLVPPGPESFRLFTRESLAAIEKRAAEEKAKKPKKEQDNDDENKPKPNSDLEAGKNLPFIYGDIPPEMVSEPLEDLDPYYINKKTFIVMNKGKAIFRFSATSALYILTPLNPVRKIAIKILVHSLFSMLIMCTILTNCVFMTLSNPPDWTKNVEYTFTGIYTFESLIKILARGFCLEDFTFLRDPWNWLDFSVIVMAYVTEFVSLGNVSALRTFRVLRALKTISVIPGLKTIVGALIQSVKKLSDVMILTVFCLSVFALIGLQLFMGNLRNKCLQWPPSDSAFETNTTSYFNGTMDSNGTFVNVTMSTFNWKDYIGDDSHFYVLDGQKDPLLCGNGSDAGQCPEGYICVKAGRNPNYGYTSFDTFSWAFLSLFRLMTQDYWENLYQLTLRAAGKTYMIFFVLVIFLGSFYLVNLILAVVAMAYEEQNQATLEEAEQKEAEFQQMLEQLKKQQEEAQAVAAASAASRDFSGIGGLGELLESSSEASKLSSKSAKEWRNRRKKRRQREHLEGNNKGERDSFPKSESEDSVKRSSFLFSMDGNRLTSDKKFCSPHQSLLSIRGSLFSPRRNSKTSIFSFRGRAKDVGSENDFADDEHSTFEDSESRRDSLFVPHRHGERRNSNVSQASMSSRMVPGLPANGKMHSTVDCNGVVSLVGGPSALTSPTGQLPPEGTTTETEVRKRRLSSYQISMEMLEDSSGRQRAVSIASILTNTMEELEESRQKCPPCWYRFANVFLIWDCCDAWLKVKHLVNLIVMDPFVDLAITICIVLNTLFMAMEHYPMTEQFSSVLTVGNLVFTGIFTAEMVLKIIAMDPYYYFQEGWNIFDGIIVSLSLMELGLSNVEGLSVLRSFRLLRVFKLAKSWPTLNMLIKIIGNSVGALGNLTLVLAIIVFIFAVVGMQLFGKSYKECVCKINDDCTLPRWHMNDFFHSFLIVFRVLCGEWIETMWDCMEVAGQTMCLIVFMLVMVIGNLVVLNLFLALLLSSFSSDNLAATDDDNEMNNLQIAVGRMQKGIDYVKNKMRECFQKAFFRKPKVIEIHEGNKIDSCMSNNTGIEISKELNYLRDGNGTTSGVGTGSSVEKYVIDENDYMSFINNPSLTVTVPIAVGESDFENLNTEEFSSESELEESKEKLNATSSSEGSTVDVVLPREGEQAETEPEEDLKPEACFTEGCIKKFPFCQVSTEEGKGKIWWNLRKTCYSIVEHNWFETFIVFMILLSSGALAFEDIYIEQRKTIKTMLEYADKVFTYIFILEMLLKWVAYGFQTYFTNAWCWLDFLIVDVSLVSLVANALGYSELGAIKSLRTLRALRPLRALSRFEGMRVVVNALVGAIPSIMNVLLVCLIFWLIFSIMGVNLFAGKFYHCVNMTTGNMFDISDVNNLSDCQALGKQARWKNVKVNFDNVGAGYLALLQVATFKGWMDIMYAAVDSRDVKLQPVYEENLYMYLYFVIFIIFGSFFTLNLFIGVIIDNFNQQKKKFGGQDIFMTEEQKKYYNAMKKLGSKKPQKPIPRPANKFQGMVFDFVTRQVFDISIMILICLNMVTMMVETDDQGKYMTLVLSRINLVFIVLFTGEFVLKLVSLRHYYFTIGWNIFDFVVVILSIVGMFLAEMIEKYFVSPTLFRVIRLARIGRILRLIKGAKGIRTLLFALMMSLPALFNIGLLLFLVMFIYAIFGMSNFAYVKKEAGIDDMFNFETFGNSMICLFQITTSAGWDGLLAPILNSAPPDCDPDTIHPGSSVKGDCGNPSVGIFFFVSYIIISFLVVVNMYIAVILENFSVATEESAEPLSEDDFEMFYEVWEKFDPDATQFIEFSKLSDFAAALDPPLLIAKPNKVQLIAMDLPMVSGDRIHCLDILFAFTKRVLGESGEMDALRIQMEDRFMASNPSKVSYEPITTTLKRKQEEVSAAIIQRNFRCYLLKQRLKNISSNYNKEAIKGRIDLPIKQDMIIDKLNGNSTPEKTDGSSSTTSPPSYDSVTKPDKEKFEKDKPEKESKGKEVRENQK
T3 sequence (Q07699 19-218, further chain): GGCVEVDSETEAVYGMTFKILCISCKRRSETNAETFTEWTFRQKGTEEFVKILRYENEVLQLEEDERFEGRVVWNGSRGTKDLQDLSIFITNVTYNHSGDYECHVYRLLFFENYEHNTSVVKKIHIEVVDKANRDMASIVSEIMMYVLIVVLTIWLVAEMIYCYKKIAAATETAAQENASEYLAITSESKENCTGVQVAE
T1 sequence (Q07699 19-218): as the sequence (Q07699 19-218, further chain) above
T1 sequence (Q99250 whole entry): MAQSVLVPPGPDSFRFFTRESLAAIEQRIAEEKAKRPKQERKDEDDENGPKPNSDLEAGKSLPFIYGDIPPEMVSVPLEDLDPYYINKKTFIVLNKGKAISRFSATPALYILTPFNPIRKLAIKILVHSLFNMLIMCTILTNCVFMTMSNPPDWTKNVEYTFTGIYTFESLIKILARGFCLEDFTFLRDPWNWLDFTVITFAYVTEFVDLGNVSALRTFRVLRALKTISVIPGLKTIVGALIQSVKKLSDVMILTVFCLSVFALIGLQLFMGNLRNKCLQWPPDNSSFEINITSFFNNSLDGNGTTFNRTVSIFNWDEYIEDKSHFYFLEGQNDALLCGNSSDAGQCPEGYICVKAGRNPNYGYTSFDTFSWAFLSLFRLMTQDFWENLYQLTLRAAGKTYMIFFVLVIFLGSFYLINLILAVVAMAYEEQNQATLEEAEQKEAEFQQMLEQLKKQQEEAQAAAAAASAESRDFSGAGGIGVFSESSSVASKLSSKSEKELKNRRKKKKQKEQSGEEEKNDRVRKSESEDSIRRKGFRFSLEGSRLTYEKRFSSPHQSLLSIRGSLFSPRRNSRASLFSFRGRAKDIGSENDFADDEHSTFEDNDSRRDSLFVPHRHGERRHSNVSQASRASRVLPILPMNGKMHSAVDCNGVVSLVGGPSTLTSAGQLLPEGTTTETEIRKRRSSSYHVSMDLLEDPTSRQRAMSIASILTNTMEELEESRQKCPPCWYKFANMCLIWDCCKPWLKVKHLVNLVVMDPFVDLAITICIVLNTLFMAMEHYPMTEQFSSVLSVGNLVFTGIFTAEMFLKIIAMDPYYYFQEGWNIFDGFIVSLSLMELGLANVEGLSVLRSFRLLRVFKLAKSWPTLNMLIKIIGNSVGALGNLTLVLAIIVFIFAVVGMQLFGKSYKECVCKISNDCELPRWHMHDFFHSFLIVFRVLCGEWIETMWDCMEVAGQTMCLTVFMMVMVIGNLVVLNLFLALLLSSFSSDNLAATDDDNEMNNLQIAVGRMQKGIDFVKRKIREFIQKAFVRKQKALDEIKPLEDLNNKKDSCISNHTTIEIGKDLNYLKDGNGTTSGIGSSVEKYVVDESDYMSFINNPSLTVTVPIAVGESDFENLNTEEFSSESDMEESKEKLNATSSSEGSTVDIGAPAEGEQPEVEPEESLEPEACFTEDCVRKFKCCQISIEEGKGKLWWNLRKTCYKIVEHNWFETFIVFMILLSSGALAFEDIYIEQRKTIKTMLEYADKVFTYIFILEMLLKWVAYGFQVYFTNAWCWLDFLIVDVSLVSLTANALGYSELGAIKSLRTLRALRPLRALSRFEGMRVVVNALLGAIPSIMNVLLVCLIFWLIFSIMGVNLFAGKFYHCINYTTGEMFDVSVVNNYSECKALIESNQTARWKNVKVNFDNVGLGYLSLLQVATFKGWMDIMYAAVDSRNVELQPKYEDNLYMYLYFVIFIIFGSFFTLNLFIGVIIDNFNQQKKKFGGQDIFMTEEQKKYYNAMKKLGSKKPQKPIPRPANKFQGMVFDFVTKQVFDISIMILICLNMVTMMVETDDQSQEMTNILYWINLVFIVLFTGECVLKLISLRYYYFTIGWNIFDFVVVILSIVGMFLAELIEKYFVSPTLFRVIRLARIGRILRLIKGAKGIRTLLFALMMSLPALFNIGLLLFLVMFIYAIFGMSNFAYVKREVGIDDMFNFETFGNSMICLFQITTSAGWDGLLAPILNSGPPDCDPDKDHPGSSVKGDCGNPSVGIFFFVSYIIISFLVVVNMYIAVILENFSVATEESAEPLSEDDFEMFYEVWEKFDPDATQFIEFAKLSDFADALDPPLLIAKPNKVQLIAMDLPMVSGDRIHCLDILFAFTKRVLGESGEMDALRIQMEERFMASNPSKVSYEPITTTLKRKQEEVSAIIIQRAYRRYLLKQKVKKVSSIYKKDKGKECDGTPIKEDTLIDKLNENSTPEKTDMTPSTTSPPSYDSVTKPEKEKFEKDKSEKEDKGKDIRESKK

| Structure (SMILES) | IC50 (hNaV1.2) [nM] | IC50 (hNaV1.7) [nM] | IC50 (hNaV1.3) [nM] | hNaV1.2-selectivity against hNaV1.3 (hNaV1.2; ratio of potencies hNaV1.3 / hNaV1.2) [fold] |
| --- | --- | --- | --- | --- |
| CC(C)C[C@H](NC(=O)[C@H](C)NC(=O)[C@H](Cc1ccc(O)cc1)NC(=O)[C@H](CCCNC(=N)N)NC(=O)[C@@H]1CSSC[C@@H]2NC(=O)[C@H](CCCCN)NC(=O)[C@H](CC(N)=O)NC(=O)[C@H](CC(N)=O)NC(=O)[C@H](CC(N)=O)NC(=O)[C@@H]3CCCN3C(=O)[C@H](CC(=O)O)NC(=O)[C@@H]3CSSC[C@H](NC(=O)[C@H](C(C)C)NC(=O)[C@H](Cc4ccc(O)cc4)NC(=O)CNC(=O)[C@H](CCC(=O)O)NC(=O)[C@H](CSSC[C@H](NC(=O)[C@H](CC(=O)O)NC(=O)CN)C(=O)N[C@@H](CC(C)C)C(=O)NCC(=O)N[C@@H](Cc4c[nH]c5ccccc45)C(=O)N[C@@H](Cc4ccccc4)C(=O)N[C@@H](CO)C(=O)NCC(=O)N3)NC2=O)C(=O)N[C@@H](Cc2c[nH]cn2)C(=O)N[C@@H](Cc2c[nH]c3ccccc23)C(=O)N[C@@H](CCCCN)C(=O)N[C@@H](Cc2ccc(O)cc2)C(=O)N2CCC[C@H]2C(=O)N[C@@H](Cc2c[nH]c3ccccc23)C(=O)N1)C(=O)O [D32A] | 110 | 118 | 221 |  |
| CC(C)C[C@H](NC(=O)[C@H](CC(=O)O)NC(=O)[C@H](Cc1ccc(O)cc1)NC(=O)[C@H](CCCNC(=N)N)NC(=O)[C@@H]1CSSC[C@@H]2NC(=O)[C@H](CCCCN)NC(=O)[C@H](CC(N)=O)NC(=O)[C@H](CC(N)=O)NC(=O)[C@H](CC(N)=O)NC(=O)[C@@H]3CCCN3C(=O)[C@H](CC(=O)O)NC(=O)[C@@H]3CSSC[C@H](NC(=O)[C@H](C(C)C)NC(=O)[C@H](Cc4ccc(O)cc4)NC(=O)CNC(=O)CNC(=O)[C@H](CSSC[C@H](NC(=O)[C@H](CC(=O)O)NC(=O)CN)C(=O)N[C@@H](CC(C)C)C(=O)NCC(=O)N[C@@H](Cc4c[nH]c5ccccc45)C(=O)N[C@@H](Cc4ccccc4)C(=O)N[C@@H](CO)C(=O)NCC(=O)N3)NC2=O)C(=O)N[C@@H](Cc2c[nH]cn2)C(=O)N[C@@H](Cc2c[nH]c3ccccc23)C(=O)N[C@@H](CCCCN)C(=O)N[C@@H](Cc2ccc(O)cc2)C(=O)N2CCC[C@H]2C(=O)N[C@@H](Cc2c[nH]c3ccccc23)C(=O)N1)C(=O)O [E18G] | 119 | 276 | 406 |  |
| CC(C)C[C@H](NC(=O)[C@H](CC(=O)O)NC(=O)[C@H](Cc1ccc(O)cc1)NC(=O)[C@H](CCCNC(=N)N)NC(=O)[C@@H]1CSSC[C@@H]2NC(=O)[C@H](CCCCN)NC(=O)[C@H](CC(N)=O)NC(=O)[C@H](CC(N)=O)NC(=O)[C@H](CC(N)=O)NC(=O)[C@@H]3CCCN3C(=O)[C@H](CC(=O)O)NC(=O)[C@@H]3CSSC[C@H](NC(=O)[C@H](C(C)C)NC(=O)[C@H](Cc4ccc(O)cc4)NC(=O)CNC(=O)[C@H](CCC(=O)O)NC(=O)[C@H](CSSC[C@H](NC(=O)[C@H](CC(=O)O)NC(=O)CN)C(=O)N[C@@H](C)C(=O)NCC(=O)N[C@@H](Cc4c[nH]c5ccccc45)C(=O)N[C@@H](Cc4ccccc4)C(=O)N[C@@H](CO)C(=O)NCC(=O)N3)NC2=O)C(=O)N[C@@H](Cc2c[nH]cn2)C(=O)N[C@@H](Cc2c[nH]c3ccccc23)C(=O)N[C@@H](CCCCN)C(=O)N[C@@H](Cc2ccc(O)cc2)C(=O)N2CCC[C@H]2C(=O)N[C@@H](Cc2c[nH]c3ccccc23)C(=O)N1)C(=O)O [L3A] | 154 | 170 | 311 |  |
| CC(C)C[C@H](NC(=O)[C@H](CC(=O)O)NC(=O)[C@H](Cc1ccc(O)cc1)NC(=O)[C@H](CCCNC(=N)N)NC(=O)[C@@H]1CSSC[C@@H]2NC(=O)[C@H](CCCCN)NC(=O)[C@H](CC(N)=O)NC(=O)[C@H](CC(N)=O)NC(=O)[C@H](CC(N)=O)NC(=O)[C@H](C)NC(=O)[C@H](CC(=O)O)NC(=O)[C@@H]3CSSC[C@H](NC(=O)[C@H](C(C)C)NC(=O)[C@H](Cc4ccc(O)cc4)NC(=O)CNC(=O)[C@H](CCC(=O)O)NC(=O)[C@H](CSSC[C@H](NC(=O)[C@H](CC(=O)O)NC(=O)CN)C(=O)N[C@@H](CC(C)C)C(=O)NCC(=O)N[C@@H](Cc4c[nH]c5ccccc45)C(=O)N[C@@H](Cc4ccccc4)C(=O)N[C@@H](CO)C(=O)NCC(=O)N3)NC2=O)C(=O)N[C@@H](Cc2c[nH]cn2)C(=O)N[C@@H](Cc2c[nH]c3ccccc23)C(=O)N[C@@H](CCCCN)C(=O)N[C@@H](Cc2ccc(O)cc2)C(=O)N2CCC[C@H]2C(=O)N[C@@H](Cc2c[nH]c3ccccc23)C(=O)N1)C(=O)O [P11A] | 208 | 120 | 600 |  |
| CC(C)C[C@H](NC(=O)[C@H](CC(=O)O)NC(=O)[C@H](Cc1ccc(O)cc1)NC(=O)[C@H](CCCNC(=N)N)NC(=O)[C@@H]1CSSC[C@@H]2NC(=O)[C@H](CCCCN)NC(=O)[C@H](CC(N)=O)NC(=O)[C@H](CC(N)=O)NC(=O)[C@H](CC(N)=O)NC(=O)[C@@H]3CCCN3C(=O)[C@H](CC(=O)O)NC(=O)[C@@H]3CSSC[C@H](NC(=O)[C@H](C(C)C)NC(=O)[C@H](Cc4ccc(O)cc4)NC(=O)CNC(=O)[C@H](CCC(=O)O)NC(=O)[C@H](CSSC[C@H](NC(=O)[C@H](CC(=O)O)NC(=O)CN)C(=O)N[C@@H](CC(C)C)C(=O)NCC(=O)N[C@@H](Cc4c[nH]c5ccccc45)C(=O)N[C@@H](Cc4ccccc4)C(=O)N[C@@H](CO)C(=O)NCC(=O)N3)NC2=O)C(=O)N[C@@H](Cc2c[nH]cn2)C(=O)N[C@@H](Cc2c[nH]c3ccccc23)C(=O)N[C@@H](CCCCN)C(=O)N[C@@H](Cc2ccc(O)cc2)C(=O)N[C@@H](CCCCN)C(=O)N[C@@H](Cc2c[nH]c3ccccc23)C(=O)N1)C(=O)O [P27K] | 124 | 108 | 1520 | > 10 |
| CC(C)C[C@H](NC(=O)[C@H](CC(=O)O)NC(=O)[C@H](Cc1ccc(O)cc1)NC(=O)[C@H](CCCNC(=N)N)NC(=O)[C@@H]1CSSC[C@@H]2NC(=O)[C@H](CCCCN)NC(=O)[C@H](CC(N)=O)NC(=O)CNC(=O)[C@H](CC(N)=O)NC(=O)[C@@H]3CCCN3C(=O)[C@H](CC(=O)O)NC(=O)[C@@H]3CSSC[C@H](NC(=O)[C@H](C(C)C)NC(=O)[C@H](Cc4ccc(O)cc4)NC(=O)CNC(=O)[C@H](CCC(=O)O)NC(=O)[C@H](CSSC[C@H](NC(=O)[C@H](CC(=O)O)NC(=O)CN)C(=O)N[C@@H](CC(C)C)C(=O)NCC(=O)N[C@@H](Cc4c[nH]c5ccccc45)C(=O)N[C@@H](Cc4ccccc4)C(=O)N[C@@H](CO)C(=O)NCC(=O)N3)NC2=O)C(=O)N[C@@H](Cc2c[nH]cn2)C(=O)N[C@@H](Cc2c[nH]c3ccccc23)C(=O)N[C@@H](CCCCN)C(=O)N[C@@H](Cc2ccc(O)cc2)C(=O)N2CCC[C@H]2C(=O)N[C@@H](Cc2c[nH]c3ccccc23)C(=O)N1)C(=O)O [N13G] | 280 | 287 | 287 |  |
| CC(C)C[C@H](NC(=O)[C@H](CC(=O)O)NC(=O)[C@H](Cc1ccc(O)cc1)NC(=O)[C@H](CCCNC(=N)N)NC(=O)[C@@H]1CSSC[C@@H]2NC(=O)[C@H](CCCCN)NC(=O)[C@H](CC(N)=O)NC(=O)[C@H](CC(N)=O)NC(=O)[C@H](CC(N)=O)NC(=O)[C@@H]3CCCN3C(=O)[C@H](CC(=O)O)NC(=O)[C@@H]3CSSC[C@H](NC(=O)[C@H](C(C)C)NC(=O)[C@H](Cc4ccc(O)cc4)NC(=O)CNC(=O)[C@H](CCC(=O)O)NC(=O)[C@H](CSSC[C@H](NC(=O)[C@H](CC(=O)O)NC(=O)CN)C(=O)N[C@@H](CC(C)C)C(=O)N[C@@H](CCCNC(=N)N)C(=O)N[C@@H](Cc4c[nH]c5ccccc45)C(=O)N[C@@H](Cc4ccccc4)C(=O)N[C@@H](CO)C(=O)NCC(=O)N3)NC2=O)C(=O)N[C@@H](Cc2c[nH]cn2)C(=O)N[C@@H](Cc2c[nH]c3ccccc23)C(=O)N[C@@H](CCCCN)C(=O)N[C@@H](Cc2ccc(O)cc2)C(=O)N2CCC[C@H]2C(=O)N[C@@H](Cc2c[nH]c3ccccc23)C(=O)N1)C(=O)O [G4R] | 193 | 201 | 409 |  |
| CC(C)C[C@H](NC(=O)[C@H](CC(=O)O)NC(=O)[C@H](Cc1ccc(O)cc1)NC(=O)[C@H](CCCNC(=N)N)NC(=O)[C@@H]1CSSC[C@@H]2NC(=O)[C@H](CCCCN)NC(=O)[C@H](CC(N)=O)NC(=O)[C@H](CC(N)=O)NC(=O)[C@H](CC(N)=O)NC(=O)[C@@H]3CCCN3C(=O)[C@H](CC(=O)O)NC(=O)[C@@H]3CSSC[C@H](NC(=O)[C@H](C(C)C)NC(=O)[C@H](Cc4ccc(O)cc4)NC(=O)CNC(=O)[C@H](CCC(=O)O)NC(=O)[C@H](CSSC[C@H](NC(=O)CNC(=O)CN)C(=O)N[C@@H](CC(C)C)C(=O)NCC(=O)N[C@@H](Cc4c[nH]c5ccccc45)C(=O)N[C@@H](Cc4ccccc4)C(=O)N[C@@H](CO)C(=O)NCC(=O)N3)NC2=O)C(=O)N[C@@H](Cc2c[nH]cn2)C(=O)N[C@@H](Cc2c[nH]c3ccccc23)C(=O)N[C@@H](CCCCN)C(=O)N[C@@H](Cc2ccc(O)cc2)C(=O)N2CCC[C@H]2C(=O)N[C@@H](Cc2c[nH]c3ccccc23)C(=O)N1)C(=O)O [D1G] | 192 | 307 | 499 |  |
